How the values were obtained:
[1] = test system: Amyloid-β peptide release (Aβ42), HEK cells overexpressing APP (HEK-APP); assay: Amyloid-β peptide release (Aβ42) assay, AlphaLISA on supernatant of HEK-APP cells; type: cell-based; conditions: Homo sapiens, HEK293, 24 h incubation with compound, read-out: Ab42 IC50 Ranges
Description: (§1) Amyloid-β Peptide Release (Aβ42 & AβTotal) Assay to Determine IC50 Values.
(§2) Compounds are dissolved in and diluted in 100% DMSO and incubated with HEK-APP cells for 24 h at 37° C. in 5% CO2. The supernatant from HEK-APP cells are mixed with antibodies: for Aβ42 detection: AlphaLISA Amyloid-β 1-42 Kit (Perkin Elmer AL203L) Anti-Amyloid β1-42-specific antibody acceptor beads, biotinylated anti-Amyloid-“β1-42” antibody and streptavidin (SA) donor beads diluted in AlphaLISA buffer (to the instructions of the supplier). For Aβ total detection: Custom Anti-Amyloid-βtotal acceptor beads (6E10 acceptor beads), biotinylated anti-Amyloid “β1-42” antibody (Perkin Elmer AL203L) and streptavidin (SA) donor beads diluted in AlphaLISA buffer (to the instructions of the supplier). After addition of supernatant to the antibody mix, the assay is incubated for 4.5 h. Amyloid-β peptide release (Aβ42 & AβTotal) is measured with a Pherastar FS (BMG) multimode reader using the alphascreen module.

[2] = test system: Amyloid-β peptide release (AβTotal), HEK cells overexpressing APP (HEK-APP); assay: Amyloid-β peptide release (AβTotal) assay, AlphaLISA on supernatant of HEK-APP cells; type: cell-based; conditions: ratio Abtot vs Ab42, HEK-APP cells, 24 h
Description: as §1, §2

Structure (SMILES)	IC50 [1] [nM]	Abtot/Ab42 selectivity ranges [2]
COc1c(F)ccc(CC(=O)Nc2ccc(-c3nn4c(C)ncc4o3)cc2)c1F [Example 68, 2-(2,4-difluoro-3-methoxyphenyl)-N-(4-(5-methylimidazo[5,1-b][1,3,4]oxadiazol-2-yl)phenyl)acetamide]	500 to 1000	b (b: 100 fold > selectivity ≥ 50 fold)
Cc1ncc2sc(C(=O)N3CCC[C@@H]3c3ccc(Br)cc3)nn12 [Example 113, (R)-(2-(4-bromophenyl)pyrrolidin-1-yl)(5-methylimidazo[5,1-b][1,3,4]thiadiazol-2-yl)methanone]	< 100	d (d: 10 fold > selectivity)
Cc1ccc(C)c(CC(=O)Nc2ccc(-c3nn4c(C)ncc4o3)nc2)c1 [Example 10, 2-(2,5-Dimethyl-phenyl)-N-[6-(5-methyl-imidazo [5,1-b][1,2,4]oxadiazol-2-yl)-pyridin-3-yl]-acetamide]	1000 to 2200	c (c: 50 fold > selectivity ≥ 10 fold)
Cc1ncc2sc(C(=O)NCc3ccccc3OCC(F)(F)F)nn12 [Example 92, 5-Methyl-imidazo[5,1-b][1,3,4]thiadiazole-2-carboxylic acid 2-(2,2,2-trifluoro-ethoxy)-benzylamide]	< 100	d (d: 10 fold > selectivity)
Cc1ncc2sc(C(=O)N3CCCCC3c3ccccc3Cl)nn12 (centres unmarked) [Example 115, [2-(2-Chloro-phenyl)-piperidin-1-yl]-(5-methyl-imidazo[5,1-b][1,3,4]thiadiazol-2-yl)-methanone]	500 to 1000	d (d: 10 fold > selectivity)
Cc1nc(C)n2nc(-c3ccc(C(=O)NCc4cccc5ccccc45)cc3)oc12 [Example 22, 4-(5,7-Dimethyl-imidazo[5,1-b][1,2,4]oxadiazol-2-yl)-N-naphthalen-1-ylmethyl-benzamide]	500 to 1000	c (c: 50 fold > selectivity ≥ 10 fold)
Cc1ccccc1C1CCCN1C(=O)c1nn2c(C)ncc2s1 (centres unmarked) [Example 121, (5-Methyl-imidazo[5,1-b][1,3,4]thiadiazol-2-yl)-(2-o-tolyl-pyrrolidin-1-yl)-methanone]	500 to 1000	d (d: 10 fold > selectivity)
Cc1ncc2oc(-c3ccc(NCc4ccc(Cl)c(Cl)c4)cn3)nn12 [Example 28]	100 to 500	d (d: 10 fold > selectivity)
Cc1ncc2oc(-c3ccc(NC(=O)Cc4ccc(C(F)(F)F)cc4)cc3)nn12 [Example 48, N-[4-(5-Methyl-imidazo[5,1-b][1,2,4]oxadiazol-2-yl)-phenyl]-2-(4-trifluoromethyl-phenyl)-acetamide]	1000 to 2200	c (c: 50 fold > selectivity ≥ 10 fold)
CCOc1ccc(CC(=O)Nc2ccc(-c3nn4c(C)ncc4o3)c(OC)c2)cc1 [Example 35, 2-(4-ethoxyphenyl)-N-(3-methoxy-4-(5-methylimidazo [5,1-b][1,3,4]oxadiazol-2-yl)phenyl)acetamide]	500 to 1000	b (b: 100 fold > selectivity ≥ 50 fold)
Cc1ncc2oc(-c3ccc(NC(=O)Cc4ccc(-c5ccccc5)cc4)cc3)nn12 [Example 56, 2-Biphenyl-4-yl-N-[4-(5-methyl-imidazo[5,1-b][1,2,4]oxadiazol-2-yl)-phenyl]-acetamide]	100 to 500	a (a: selectivity ≥ 100 fold)
Cc1ncc2oc(-c3ccc(NC(=O)Cc4c(F)cc(Cl)cc4F)cc3)nn12 [Example 7, 2-(4-Chloro-2,6-difluoro-phenyl)-N-[4-(5-methyl-imidazo[5,1-b][1,2,4]oxadiazol-2-yl)-phenyl]-acetamide]	500 to 1000	b (b: 100 fold > selectivity ≥ 50 fold)
Cc1ncc2oc(-c3ccc(Nc4ccn(Cc5ccc(Cl)c(Cl)c5)n4)cc3)nn12 [Example 30, [1-(3,4-Dichloro-benzyl)-1H-pyrazol-3-yl]-[4-(5-methyl-imidazo[5,1-b][1,2,4]oxadiazol-2-yl)-phenyl]-amine]	1000 to 2200	c (c: 50 fold > selectivity ≥ 10 fold)
Cc1ncc2sc(C(=O)N3CCCC[C@H]3c3ccccc3)nn12 [Example 120, (5-Methyl-imidazo[5,1-b][1,3,4]thiadiazol-2-yl)-((S)-2-phenyl-piperidin-1-yl)-methanone]	500 to 1000	d (d: 10 fold > selectivity)
Cc1ncc2oc(-c3ccc(NC(=O)Cc4ccc(Cl)c(C(F)(F)F)c4)cc3)nn12 [Example 4]	1000 to 2200	c (c: 50 fold > selectivity ≥ 10 fold)
Cc1ncc2oc(-c3ccc(NC(=O)NCc4ccccc4Cl)cc3)nn12 [Example 54, 1-(2-Chloro-benzyl)-3-[4-(5-methyl-imidazo[5,1-b][1,2,4]oxadiazol-2-yl)-phenyl]-urea]	1000 to 2200	c (c: 50 fold > selectivity ≥ 10 fold)
Cc1ncc2oc(-c3ccc(Nc4nc5n(n4)CCCC5c4ccc(F)cc4)cc3)nn12 (centres unmarked) [Example 24, 8-(4-fluorophenyl)-N-(4-(5-methylimidazo[5,1-b][1,3,4]oxadiazol-2-yl)phenyl)-5,6,7,8-tetrahydro-[1,2,4]triazolo[1,5-a]pyridin-2-amine]	500 to 1000	c (c: 50 fold > selectivity ≥ 10 fold)
Cc1ncc2oc(-c3ccc(NC(=O)Cc4cc(F)cc(F)c4F)cc3)nn12 [Example 61, N-(4-(5-methylimidazo[5,1-b][1,3,4]oxadiazol-2-yl)phenyl)-2-(2,3,5-trifluorophenyl)acetamide]	500 to 1000	b (b: 100 fold > selectivity ≥ 50 fold)
Cc1ccc(C)c(CC(=O)Nc2ccc(-c3nn4c(C)ncc4o3)cc2C)c1 [Example 38]	100 to 500	a (a: selectivity ≥ 100 fold)
Cc1ncc2oc(-c3ccc(NC(=O)Cc4csc5ccc(Cl)cc45)cc3)nn12 [Example 73, 2-(5-chlorobenzo[b]thiophen-3-yl)-N-(4-(5-methylimidazo[5,1-b] [1,3,4]oxadiazol-2-yl)phenyl)acetamide]	1000 to 2200	c (c: 50 fold > selectivity ≥ 10 fold)
Cc1ncc2oc(-c3ccc(NC(=O)Cc4ccc(Cl)cc4)cc3)nn12 [Example 47, 2-(4-Chloro-phenyl)-N-[4-(5-methyl-imidazo[5,1-b] [1,2,4]oxadiazol-2-yl)-phenyl]-acetamide]	500 to 1000	c (c: 50 fold > selectivity ≥ 10 fold)
Cc1ncc2sc(C(=O)N3CCCC3c3cccc(Br)c3)nn12 (centres unmarked) [Example 123, [2-(3-Bromo-phenyl)-pyrrolidin-1-yl]-(5-methyl-imidazo[5,1-b][1,3,4]thiadiazol-2-yl)-methanone]	1000 to 2200	d (d: 10 fold > selectivity)
Cc1ncc2oc(-c3ccc(NC(=O)Nc4ccccc4C(F)(F)F)cc3)nn12 [Example 58, 1-[4-(5-Methyl-imidazo[5,1-b][1,2,4]oxadiazol-2-yl)-phenyl]-3-(2-trifluoromethyl-phenyl)-urea]	500 to 1000	d (d: 10 fold > selectivity)
Cc1cc(-c2nn3c(C)ncc3o2)ccc1NC(=O)Cc1ccc(C(F)(F)F)cc1 [Example 39, N-(2-methyl-4-(5-methylimidazo[5,1-b][1,3,4]oxadiazol-2-yl)phenyl)-2-(4-(trifluoromethyl)phenyl)acetamide]	500 to 1000	b (b: 100 fold > selectivity ≥ 50 fold)
COc1cc(NC(=O)Cc2ccc(OC(F)(F)F)cc2)ccc1-c1nn2c(C)ncc2o1 [Example 34, N-(3-methoxy-4-(5-methylimidazo[5,1-b][1,3,4]oxadiazol-2-yl)phenyl)-2-(4-(trifluoromethoxy)phenyl)acetamide]	500 to 1000	b (b: 100 fold > selectivity ≥ 50 fold)
Cc1ncc2sc(C(=O)NCc3ccc(Oc4ccc(F)cc4)cc3)nn12 [Example 106, 5-Methyl-imidazo[5,1-b][1,3,4]thiadiazole-2-carboxylic acid 4-(4-fluoro-phenoxy)-benzylamide]	100 to 500	b (b: 100 fold > selectivity ≥ 50 fold)
Cc1ncc2oc(-c3ccc(NC(=O)Cc4c(Cl)cc(C(F)(F)F)cc4Cl)cc3)nn12 [Example 67, 2-(2,6-dichloro-4-(trifluoromethyl)phenyl)-N-(4-(5-methylimidazo [5,1-b][1,3,4]oxadiazol-2-yl)phenyl)acetamide]	1000 to 2200	c (c: 50 fold > selectivity ≥ 10 fold)
CCOc1ccccc1C(C)NC(=O)c1nn2c(C)ncc2s1 (centres unmarked) [Example 90, 5-Methyl-imidazo[5,1-b][1,3,4]thiadiazole-2-carboxylic acid [1-(2-ethoxy-phenyl)-ethyl]-amide]	500 to 1000	d (d: 10 fold > selectivity)
Cc1nc(C)n2nc(-c3ccc(C(=O)NCc4ccccc4C(F)(F)F)cc3)oc12 [Example 23, 4-(5,7-Dimethyl-imidazo[5,1-b][1,2,4]oxadiazol-2-yl)-N-(2-trifluoromethyl-benzyl)-benzamide]	1000 to 2200	c (c: 50 fold > selectivity ≥ 10 fold)
Cc1ncc2sc(C(=O)N3CCCC3c3ccc(Cl)cc3)nn12 (centres unmarked) [Example 118, [2-(4-Chloro-phenyl)-pyrrolidin-1-yl]-(5-methyl-imidazo[5,1-b][1,3,4]thiadiazol-2-yl)-methanone]	100 to 500	–

— patent US9932354B2, “Imidazo-oxadiazole and imidazo-thiadiazole derivatives” (Ares Trading S.A., priority 2012, dated 2018)
